Tested on: Spontaneously hypertensive rats (SHR/Izm)
Experiment: Systolic blood pressure in spontaneously hypertensive rats after single dose of synthesized peptides (2) to (6) (tail-cuff method)
Assay type: in vivo, rat
Settings: single dose 50 mg/kg body weight, *p < 0.05, **p < 0.01
Text: The following peptides were synthesized according to known methods, based on the amino acid sequences of peptides isolated from the globin proteolysate prepared in Experimental Example 3 and identified. The peptide (WGKV; SEQ ID NO:3) (3) corresponds to a peptide produced by one amino acid deletion at the C terminus from the amino acid sequence of the peptide (WGKVN; SEQ ID NO:2) (2), and the peptide (WGK; SEQ ID NO:4) (4) corresponds to a peptide produced by deleting a further amino acid at the C terminus.
Spontaneously hypertensive rats (SHR/Izm, male, 12-week-old, body weight: 285 g, Japan SLC, Inc.) were administered in a single dose with the peptides synthesized above (peptides (2) to (6)) in an amount of 50 mg/kg body weight. Two, four, and six hours after the start of administration, the systolic blood pressures of the rats were measured using a non-heating non-invasive blood pressure monitor (“MK-2000”, manufactured by Muromachi Kikai Co., Ltd.) by the tail-cuff method without using anesthesia. Spontaneously hypertensive rats as a control group were orally administered with a solvent (distilled water), and the systolic blood pressures of the rats were measured in a similar manner.

Substance	Reduction in blood pressure, 2 hours after administration	Reduction in blood pressure, 4 hours after administration	Reduction in blood pressure, 6 hours after administration
Trp-Gly-Lys-Val (WGKV; Peptide found in globin hydrolysate)	−9 ± 3 mmHg	−4 ± 4 mmHg	−3 ± 3 mmHg
Ala-Ala-Trp-Gly-Lys (AAWGK; Peptide found in globin hydrolysate)	−7 ± 4 mmHg	−8 ± 12 mmHg	−4 ± 8 mmHg
Trp-Gly-Lys-Val-Asn (WGKVN; Peptide found in globin hydrolysate)	−16 ± 4** mmHg	−12 ± 4* mmHg	−14 ± 3** mmHg
Phe-Glu-Ser (FES; Peptide found in globin hydrolysate)	−15 ± 4* mmHg	−13 ± 8 mmHg	−15 ± 6 mmHg
Trp-Gly-Lys (WGK; Peptide found in globin hydrolysate)	−3 ± 7 mmHg	−23 ± 8** mmHg	−15 ± 8 mmHg

Reference: patent publication US8394769B2, “Anti-hypertensive agent” (MG Pharma Inc., priority 2007, dated 2013)
